{
  "source": "paper PMC8246065",
  "about": "(The EMBO Journal, 2021)",
  "key": {"NOD1∆LRR": {"molecular_target": "T1, NOD1∆LRR (Homo sapiens, UniProt Q9Y239)", "T1 sequence (Q9Y239 1-531 limits assumed)": "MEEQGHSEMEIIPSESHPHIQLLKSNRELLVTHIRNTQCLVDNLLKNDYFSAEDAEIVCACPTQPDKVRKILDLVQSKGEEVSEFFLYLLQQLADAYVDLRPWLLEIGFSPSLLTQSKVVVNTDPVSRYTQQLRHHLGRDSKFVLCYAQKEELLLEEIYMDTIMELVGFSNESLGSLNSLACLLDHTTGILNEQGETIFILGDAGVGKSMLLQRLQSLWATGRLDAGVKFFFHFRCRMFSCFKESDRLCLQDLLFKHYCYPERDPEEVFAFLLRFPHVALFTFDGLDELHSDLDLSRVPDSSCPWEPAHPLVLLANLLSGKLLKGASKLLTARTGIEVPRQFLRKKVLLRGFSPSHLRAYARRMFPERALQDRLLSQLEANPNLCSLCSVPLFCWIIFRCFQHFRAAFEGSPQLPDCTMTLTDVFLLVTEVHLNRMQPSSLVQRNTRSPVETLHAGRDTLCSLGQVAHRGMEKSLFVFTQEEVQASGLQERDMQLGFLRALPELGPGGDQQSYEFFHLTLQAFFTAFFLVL", "test": "MST with cell lysates expressing NOD1 mutants", "type": "binding", "settings": "Fig EV5D", "protocol": "Binding of NOD1, NOD2, GFP, or NLRP3‐GFP to different ligands was measured by microscale thermophoresis (MST). 20 nM GFP or GFP‐tagged proteins in MST buffer (PBS pH 7.4, containing 0.5% NP‐40 and 10 mM DTT) was incubated with different concentrations of ligands. Immediately, samples were loaded into standard glass capillaries (NanoTemper) and thermophoresis analysis was performed on a NanoTemper Monolith NT.115 instrument (40% LED, 80% MST power) at 22°C. A laser on‐time of 30 s and a laser off‐time of 5 s were used. The experiment was performed in triplicates, and the MST curves were fitted using NT analysis software to obtain the K d values."}, "[1]": {"tested_on": "HeLa inducible NOD1 or NOD2 cells", "test": "ELISA of IL6/IL8 in supernatants of HeLa inducible NOD1 or NOD2 cells", "type": "cell-based, human", "method": "To differentiate THP‐1 into macrophage‐like cells, THP‐1 cells were stimulated with 50 ng/ml phorbol 12‐myristate 13‐acetate (Sigma‐Aldrich, P8139) for 24 h and then incubated with fresh medium for another 48 h. […] To induce NOD1 or NOD2 expression, HeLa NOD1 or NOD2 cells were treated with 0.5 µg/ml or 0.25 µg/ml doxycycline for at least 16 h, respectively. All cells have been checked for mycoplasma contamination regularly. Bone marrow‐derived macrophages (BMDMs) were obtained from tibial and femural bones and generated with DMEM containing 20% L929 cell supernatant, 10% FBS, 5% heat‐inactivated horse serum, 1 mM sodium pyruvate, and 2 mM L‐glutamine. For BMDM stimulation experiments, BMDMs were treated with IFN‐γ (20 ng/ml) overnight before stimulation."}},
  "data": [
    {"smiles": "CCCCCCCCCCCCC/C=C/[C@@H](O)[C@@H](N)COP(=O)(O)O", "note": "[S1P, sphingosine‐1‐phosphate]", "values": [
      {"measurement": "Interaction with NOD1∆LRR by MST", "setting": "NOD1∆LRR", "value": "still interacted"},
      {"measurement": "IL6 production compared to iE-DAP or MDP at the same concentration", "setting": "[1]; 0.5, 5 or 20 µM with digitonin (5 µg/ml), Fig EV4E,F", "value": "higher IL6 production"},
      {"measurement": "IL6 production on co-stimulation vs single stimulation", "setting": "[1]; S1P (2 µM) with iE-DAP or MDP (3, 20, 50 µM), digitonin, 20 h", "value": "significantly higher IL6 production"},
      {"measurement": "IL6 or IL8 production", "setting": "[1]; cytosolic delivery with digitonin (5 µg/ml), 20 h", "value": "induced abundant IL6 or IL8 production"},
      {"measurement": "IL6 or IL8 production", "setting": "[1]; extracellular stimulation (absence of digitonin), S1P 10 µM", "value": "did not induce marked IL6 or IL8 production"}
    ]}
  ]
}
